Test results reported in paper PMC9701171 (Journal of pharmaceutical and biomedical analysis, 2022).
Where two headings read alike, the source gives them in different places.

Experiments:
[1] = target: T1, HbA (Homo sapiens, UniProt P69905); assay: Steady-state concentration-dependent HbA binding; conditions: for n (Hill coefficient): SS concentration-dependency; for fold enhancement of binding affinity (improvement of KD) relative to 5-HMF: compared to 5-HMF
[2] = target: T1, HbA; assay: Time-dependent HbA binding kinetics; conditions: for time to equilibration with HbA: low [AEH]0, assuming first-order conditions; for time to achieve steady state (SS): 0.2 mM HbA, pilot observations
[3] = target: T1, HbA; conditions: cited from earlier work
[4] = test system: HbS; conditions: cited from earlier work
[5] = Reference Method, sigmoidal Bmax model, PE (COV)

T1 sequence (P69905 2-142 limits assumed): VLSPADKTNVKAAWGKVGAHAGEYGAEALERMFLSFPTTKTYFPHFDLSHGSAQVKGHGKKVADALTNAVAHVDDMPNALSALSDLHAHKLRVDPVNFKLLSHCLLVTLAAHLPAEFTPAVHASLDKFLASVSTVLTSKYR
T1 sequence (P68871 2-147 partner limits assumed): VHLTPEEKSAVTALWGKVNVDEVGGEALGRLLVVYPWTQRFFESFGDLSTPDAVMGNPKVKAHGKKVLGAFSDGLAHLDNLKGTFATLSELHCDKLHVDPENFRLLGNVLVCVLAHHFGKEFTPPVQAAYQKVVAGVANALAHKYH

Kd [1]	Kd [2]	Compound	n (Hill coefficient) ([1]; sigmoidal Bmax model, PE (COV))	fold enhancement of binding affinity (improvement of KD) relative to 5-HMF [1]	time to equilibration with HbA [2]	time to achieve steady state (SS) [2]	HbS-AEH adduct (Hb modification) [4]	further results
190 µM	120 µM	O=Cc1ccc(C=O)o1 [2,5-DMF, 2,5-Furandicarboxaldehyde]	1.7(21%)	2 fold	–	–	–	koff ([2]; read-out: koff (first-order dissociation rate constant)): 1.81e-05 s⁻¹
–	–	O=Cc1ccc(CO)o1 [5-HMF, 5-Hydroxymethyl-2-furfural]	1.1 (10%)	–	12 to 20 h	–	–	Bmax ([1]; Universal Method, sigmoidal Bmax model, PE (COV)): 0.20 (6%); time to approach equilibrium ([3]; 5-HMF in the presence of HbA): 24 to 30 h; Bmax [3, 5]: 0.092 (10%); Bmax / HbA0 [3, 5]: 0.74 (10%); Kd [3, 5]: 280 µM; Kd ([3]; read-out: binding affinity, 5-HMF in the presence of HbA): 250 µM
110 µM	–	CC(C)n1nccc1-c1ncccc1COc1cccc(O)c1C=O [GBT-440]	1.6 (16%)	–	–	≤ 120 s	–	HbA modified to the HbA-AEH adduct at saturation ([1]; steady state, HbA solution): about 50%
–	–	COc1ccc(OCc2ccccn2)c(C=O)c1 [INN-310]	2.4 (20%)	–	–	–	100%	–
–	–	O=Cc1c(O)cccc1OCc1cccc(CO)n1 [VZHE-039]	1.9 (34%)	less than 5 fold	less than half an hour	< 360 s	100%	fold shorter t1/2^eq relative to 5-HMF ([2]; current experimental conditions): more than 50 fold
1700 µM	4300 µM	COc1cc(C=O)ccc1O [Vanillin, 4-Hydroxy-5-methoxybenzaldehyde]	–	–	–	–	–	HbA modification ([1]; 5.8 mM, initial pilot study): < 100%
